Source: patent US6087337A, “Method for treating benign and malignant proliferative skin disease” (Biomeasure Inc., priority 1993, dated 2000)

Key:
B16-F10 melanoma = test: Response of intradermally implanted B16-F10 melanoma xenografts to topically applied Somatuline BIM-23014C; assay type: in vivo, BALB/c derived athymic nude female mice
Method: Response of Intradermally Implanted B16-F10 Melanoma Xenografts to Topically Applied Somatuline BIM-23014C
Eighteen BALB/c derived athymic nude female mice were implanted intradermally (ID), on the right flank, with a 0.02 to 0.05 ml suspension of in vitro propagated B16-F10 melanoma cells suspended in a normal saline solution. Implantation was done with a 23 gauge needle attached to a 1.0 ml syringe on day 0. Such an intradermal implant of the murine B16-F10 melanoma is essentially orthotopic and gives rise to an extremely fast growing tumor. By day 2, flat melanotic growths were evident at the injection site. The lesions resembled in situ melanomas.
Somatuline (D-β-Nal-Cys-Tyr-D-Trp-Lys-Val-Cys-Thr-NH2, available from Biomeasure, Inc. under the product code BIM-23014C) was added to a 50% DMSO in saline solution at a concentration of 10 mgs/ml. After wiping the skin with a gauze pad wet with isopropyl alcohol, a drop (approximately 0.05 ml) of the Somatuline solution was applied to the skin surface of the mice over the melanotic lesion. The solution was rubbed into the skin for approximately 1 minute with a latex gloved (Baxter Scientific Products/Flexam) finger. Well over half of the drop of Somatuline was not absorbed and was lost after the rubbing-in procedure. The controls were treated identically with 50% DMSO in saline solution without any somatostatin analog. Topical treatments were applied twice daily for 11 days beginning on day 3 post implantation.

[1] = tested on: insulin, glucagon, and growth hormone release; conditions: times more potent than naturally occurring somatostatin; cited from earlier work

Molecule | Tumor Wt. (mgs) Day 12 (B16-F10 melanoma; 0.05 ml topical of DMSO/Saline vehicle containing 10 mg/ml, b.i.d., q.d. 3-14, intradermal B16-F10 implant in nude mice, day 12) [mgs] | growth of the melanotic lesion (tumor growth curves FIG. 1, photographs FIG. 2, days 4, 7, 11) (B16-F10 melanoma; topical Somatuline solution 10 mgs/ml in 50% DMSO in saline, twice daily, compared to control mice) | % T/C (B16-F10 melanoma; tumor weight day 12, treated vs DMSO/Saline vehicle control, 0.05 ml topical, 10 mg/ml, b.i.d., q.d. 3-14) [%] | potency relative to naturally occurring somatostatin for the inhibition of insulin, glucagon, and growth hormone release [1]
CC(C)[C@@H]1NC(=O)[C@H](CCCCN)NC(=O)[C@@H](Cc2c[nH]c3ccccc23)NC(=O)[C@H](Cc2ccc(O)cc2)NC(=O)[C@@H](NC(=O)[C@H](N)Cc2ccc3ccccc3c2)CSSC[C@@H](C(=O)N[C@H](C(N)=O)[C@@H](C)O)NC1=O [BIM-23014C, D-β-Nal-Cys-Tyr-D-Trp-Lys-Val-Cys-Thr-NH2] | 185.9 ± 47 | clear growth inhibition | 35 | 
cyclo(N-Me-Ala-Tyr-D-Trp-Lys-Val-Phe) |  |  |  | 50-100 times
